Results: patent US9861590B2, “Self-supporting films for delivery of therapeutic agents” (priority 2010, dated 2018)
Counter-ions that a name gives are not always drawn.

Test: Saturation and payload limits for dip coating bupivacaine HCl solution on polyester mesh (FIG. 8)
Assay type: physicochemical
Settings: Parietex monofilament polyester mesh without polymer film
Description: Further, it is believed that spraying films on a medical device (e.g., mesh) compared to other conventional methods, such as dip coating, provides increased loading of the therapeutic agent.
More particularly FIG. 8 illustrates the loading limits for a polyester mesh (Parietex™ monofilament mesh) without a polymer film.

saturation and payload limits for dip coating solution (solution in MeOH): 12 % w/v
saturation and payload limits for dip coating solution (solution in water): 5 % w/v
Compound: CCCCN1CCCCC1C(=O)Nc1c(C)cccc1C (centres unmarked) [bupivacaine HCl, bupivacaine hydrochloride]
